Test systems include U-251; SK-OV-3; CAKI-1; OVCAR-5; MDA-MB-435; HCT-15; NCI-H460; NCI/ADR-RES; ACHN; RPMI-8226; NCI-H226; SN12C; LOX IMVI; DU-145; MDA-MB-231; SF-295; UACC-62; MOLT-4; K562; SR.
What all share (experiment): NCI anticancer screen, dose series, 48 h

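Protocol summary: plate cells (96-well), add compound at 5 concentrations, incubate 48 h, interpolate endpoints linearly. GI50: concentration for 50% inhibition of growth.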 Activity calls are given as the source filed them. No stated cut-off is given here; in the data, active = GI50 up to about 1.1 µM and inactive = higher.

As to `Cc1csc2nc(-c3ccc(Cl)c([N+](=O)[O-])c3)c(/C=N/NC(=N)N)n12`, the GI50 in the assay on U-251 is 1.5 µM (inactive); in the assay on SK-OV-3, 1.84 µM (inactive); with CAKI-1, 1.83 µM (inactive); with OVCAR-5, 1.21 µM (inactive); in the assay on MDA-MB-435 it was 1.69 µM (inactive); with HCT-15, 1.66 µM. Also, the GI50 in the assay on NCI-H460 was 1.78 µM (inactive); in the assay on NCI/ADR-RES, 2.21 µM (inactive); in the assay with ACHN, 1.6 µM (inactive); in the assay with RPMI-8226, 1.75 µM (inactive); in the assay with NCI-H226 it was 1.67 µM (inactive); in the assay with SN12C, 1.76 µM (inactive). The GI50 in the assay with LOX IMVI was 1.51 µM (inactive); in the assay on DU-145, 2.16 µM (inactive); in the assay on MDA-MB-231, 1.77 µM (inactive); in the assay with SF-295, 1.4 µM (inactive); in the assay on UACC-62 it was 1.72 µM (inactive).
`CN1C(=O)C(c2c[nH]c3ccccc23)N(C)C(=O)C1c1c[nH]c2ccccc12` (stereo not given): the GI50 in the assay with U-251 is > 100 µM (inactive); with SK-OV-3 it was > 100 µM (inactive); in the assay on CAKI-1, > 100 µM (inactive); in the assay on OVCAR-5 it was > 100 µM (inactive); with MDA-MB-435 it was > 100 µM (inactive); in the assay with HCT-15 it was more than 100 µM. The GI50 is > 100 µM (inactive) in the assay with NCI-H460; > 100 µM (inactive) with NCI/ADR-RES; 72.8 µM (inactive) in the assay with ACHN; > 100 µM (inactive) in the assay with SN12C; > 100 µM (inactive) in the assay on LOX IMVI; > 100 µM (inactive) in the assay with MOLT-4. The GI50 with DU-145 is > 100 µM (inactive); with K562, > 100 µM (inactive); in the assay with MDA-MB-231, 34.2 µM (inactive); in the assay on SF-295 it was > 100 µM (inactive); with UACC-62, > 100 µM (inactive).
Consider `COC(=O)CC1C(COC(C)=O)OC(n2cc(C)c(=O)[nH]c2=O)C1OC(C)=O` (stereo not given), for which the GI50 is > 100 µM (inactive) in the assay with U-251; > 100 µM (inactive) in the assay with SK-OV-3; > 100 µM (inactive) in the assay with CAKI-1; > 100 µM (inactive) in the assay with OVCAR-5; > 100 µM (inactive) in the assay with MDA-MB-435; more than 100 µM in the assay with HCT-15. Besides, the GI50 with NCI-H460, in the assay on NCI/ADR-RES, with ACHN, in the assay on RPMI-8226, with NCI-H226 and with SN12C was > 100 µM (inactive) in each case. The GI50 with LOX IMVI, with DU-145, in the assay on MDA-MB-231, in the assay on SF-295 and in the assay on UACC-62 was > 100 µM (inactive) each time.
With `C=CCOCn1ccc(=O)[nH]c1=O`, the GI50 was > 100 µM (inactive) with SK-OV-3; > 100 µM (inactive) with CAKI-1; > 100 µM (inactive) in the assay on MDA-MB-435; more than 100 µM in the assay with HCT-15; > 100 µM (inactive) with NCI-H460; > 100 µM (inactive) with ACHN. Moreover, the GI50 in the assay on RPMI-8226, in the assay with SR, in the assay on NCI-H226, with SN12C, in the assay with LOX IMVI and in the assay with MOLT-4 was > 100 µM (inactive) in each case. Besides, the GI50 with DU-145, in the assay on K562, with MDA-MB-231, with SF-295 and in the assay on UACC-62 was > 100 µM (inactive) in each case.
On to `COc1ccc(C(=O)/C=C/c2ccc3c(c2)OCO3)c(OCc2ccccc2)c1`, for which the GI50 is > 57.5 µM (inactive) with U-251; > 54.8 µM (inactive) in the assay on SK-OV-3; 11.8 µM (inactive) in the assay with CAKI-1; > 76.7 µM (inactive) with OVCAR-5; 25.5 µM (inactive) with MDA-MB-435; 5.08 µM in the assay on HCT-15. Moreover, the GI50 in the assay on NCI-H460 is 8.22 µM (inactive); with ACHN, 16.6 µM (inactive); in the assay on RPMI-8226 it was 4.45 µM (inactive); in the assay with SR it was 3.24 µM (inactive); in the assay on NCI-H226, 18.6 µM (inactive); in the assay with SN12C, 15.9 µM (inactive). The GI50 in the assay with LOX IMVI was 7.89 µM (inactive); in the assay on MOLT-4, 3.8 µM (inactive); with DU-145, > 39.2 µM (inactive); with K562 it was 12.5 µM (inactive); with MDA-MB-231 it was > 70.1 µM (inactive); in the assay on SF-295 it was > 61.8 µM (inactive). Further, in the assay on UACC-62, the GI50 is 17.4 µM (inactive).
Turning to `COc1ccc(/C=C/c2cnnc3ccccc23)cc1OC`, the GI50 with U-251 is > 10 µM (inactive); with SK-OV-3, > 10 µM (inactive); with CAKI-1 it was > 10 µM (inactive); in the assay on OVCAR-5, > 10 µM (inactive); with MDA-MB-435, > 10 µM (inactive); in the assay on HCT-15, more than 10 µM. Moreover, the GI50 with NCI-H460, in the assay with NCI/ADR-RES, in the assay on ACHN, with RPMI-8226, in the assay on NCI-H226 and with SN12C was > 10 µM (inactive) throughout. Moreover, the GI50 in the assay with LOX IMVI, with MOLT-4, in the assay on DU-145, in the assay with K562, in the assay with MDA-MB-231 and in the assay with SF-295 was > 10 µM (inactive) throughout. In addition, the GI50 with UACC-62 is > 10 µM (inactive).
As to `CCN(CC)C(=C(C(Cl)=C(Cl)Cl)[N+](=O)[O-])N(CC)CC`, the GI50 in the assay on U-251 was > 100 µM (inactive); in the assay with SK-OV-3, > 100 µM (inactive); in the assay on CAKI-1 it was 34.8 µM (inactive); in the assay on OVCAR-5, > 100 µM (inactive); in the assay with HCT-15 it was 62.2 µM; in the assay on NCI-H460, 55 µM (inactive). In addition, the GI50 is 54 µM (inactive) in the assay on NCI/ADR-RES; 72.6 µM (inactive) with ACHN; 42.3 µM (inactive) with RPMI-8226; 33.7 µM (inactive) in the assay on SR; > 100 µM (inactive) in the assay with NCI-H226; 93.5 µM (inactive) in the assay on SN12C. Further, the GI50 with LOX IMVI was 41 µM (inactive); in the assay with MOLT-4, 27.2 µM (inactive); in the assay on DU-145 it was 62.4 µM (inactive); with K562, 46.5 µM (inactive); in the assay with MDA-MB-231, > 100 µM (inactive); in the assay with SF-295, > 100 µM (inactive). Further, in the assay with UACC-62, the GI50 was 49.4 µM (inactive).
With `Clc1ccc(C(OCn2ccnc2)c2nc3ccccc3[nH]2)c(Cl)c1` (stereo not given), the GI50 with U-251 is 31.4 µM (inactive); in the assay on CAKI-1, 87.3 µM (inactive); with OVCAR-5 it was > 100 µM (inactive); with MDA-MB-435 it was 25.2 µM (inactive); with HCT-15 it was 27.7 µM; with NCI-H460, 24.5 µM (inactive). In addition, the GI50 in the assay on NCI/ADR-RES was 56.2 µM (inactive); in the assay with ACHN, 26.4 µM (inactive); in the assay on RPMI-8226 it was 24.6 µM (inactive); in the assay on SR, > 10 µM (inactive); in the assay with SN12C, 61.4 µM (inactive); in the assay on LOX IMVI it was 32.4 µM (inactive). Also, the GI50 in the assay with MOLT-4 was 29.6 µM (inactive); in the assay with DU-145, 64.4 µM (inactive); in the assay with K562 it was 45.7 µM (inactive); in the assay with MDA-MB-231, 84.5 µM (inactive); with SF-295, 29.6 µM (inactive); with UACC-62 it was 35 µM (inactive).
Consider `CC1(C)C2CC(=O)C1(C)C(O)C2Br` (stereo not given), for which the GI50 was > 100 µM (inactive) in the assay on U-251; > 100 µM (inactive) in the assay on SK-OV-3; > 100 µM (inactive) with OVCAR-5; > 100 µM (inactive) in the assay on MDA-MB-435; more than 100 µM in the assay with HCT-15; > 100 µM (inactive) with NCI-H460. The GI50 in the assay on NCI/ADR-RES, in the assay on ACHN, in the assay with NCI-H226, with SN12C, in the assay on MOLT-4 and in the assay on DU-145 was > 100 µM (inactive) in each case. Moreover, the GI50 with K562, in the assay on MDA-MB-231, with SF-295 and in the assay on UACC-62 was > 100 µM (inactive) in each case.
For `O=C1c2ccccc2C(=O)c2c(NCC3CO3)cccc21` (stereo not given), the GI50 with U-251 is 14 µM (inactive); in the assay on SK-OV-3 it was > 95.7 µM (inactive); in the assay on CAKI-1 it was 4.75 µM (inactive); in the assay on OVCAR-5, > 71.3 µM (inactive); in the assay on MDA-MB-435 it was 7.59 µM (inactive); in the assay on HCT-15, 7.23 µM. Further, the GI50 in the assay with NCI-H460 is > 64.7 µM (inactive); with NCI/ADR-RES, 9.91 µM (inactive); in the assay with ACHN it was 8.67 µM (inactive); in the assay with RPMI-8226, 33.2 µM (inactive); with NCI-H226, > 100 µM (inactive); with SN12C, 7.66 µM (inactive). In addition, the GI50 with LOX IMVI is 1.38 µM (inactive); in the assay with MOLT-4 it was 3.77 µM (inactive); in the assay with K562, 6.62 µM (inactive); in the assay with MDA-MB-231, 15.2 µM (inactive); in the assay on SF-295, 26.5 µM (inactive); in the assay with UACC-62, 16 µM (inactive).
`CC(=O)OCC1OC(OCC2OC(N3C(=S)N[C@H]([C@@H](O)[C@H](O)[C@H](O)CO)[C@H]3O)C(OC(C)=O)C(OC(C)=O)C2OC(C)=O)C(OC(C)=O)C(OC(C)=O)C1OC(C)=O` (stereo not given in full): the GI50 is > 100 µM (inactive) with U-251; > 100 µM (inactive) in the assay on SK-OV-3; > 100 µM (inactive) with CAKI-1; > 100 µM (inactive) in the assay on OVCAR-5; > 100 µM (inactive) in the assay on MDA-MB-435; more than 100 µM in the assay with HCT-15. The GI50 was > 100 µM (inactive) in the assay on NCI-H460; > 100 µM (inactive) in the assay with NCI/ADR-RES; > 100 µM (inactive) with ACHN; 79.8 µM (inactive) in the assay with RPMI-8226; > 100 µM (inactive) with SR; > 100 µM (inactive) in the assay on SN12C. Also, the GI50 was > 100 µM (inactive) in the assay on MOLT-4; > 100 µM (inactive) in the assay on DU-145; 28.6 µM (inactive) in the assay with K562; > 100 µM (inactive) with MDA-MB-231; > 100 µM (inactive) in the assay with SF-295; > 100 µM (inactive) in the assay with UACC-62.
